# Legend:
# Type in all cases: cell-based, Oryza sativa var. Kinmaze
# [1] = system: Rb line resistant mutant rice culture cells; test: Growth of rice culture cells (relative wet weight of callus) in the presence of herbicide, Rb line
# Protocol: (§1) Next, endosperm portions were removed from the callus induced on the medium, and then subculture was performed. Then, part of the obtained calli was sub-cultured, that is, cultured successively once per two weeks in a liquid medium (the composition is the same as in that shown in Table 3, but not supplemented with Gelrite) supplemented with 1 μM bispyribac-sodium (one type of PC herbicides). Two to 6 weeks later the culture cells started to wither. About 2 months later, a plurality of non-discolored cell masses that were thought to be conducting cell division were obtained from among culture cell populations most of which had died and became discolored brown. These cell masses were isolated and cultured, so that a plurality of cell lines that can proliferate in the presence of 2 μM bispyribac-sodium were obtained. […]
# (§2) Approximately 1.5 g (wet weight) of the resistant mutant was transplanted into a 200 ml Erlenmeyer flask supplemented with 50 ml of a MS-2,4-D liquid medium and bispyribac-sodium at a certain concentration, followed by culturing at approximately 27° C. for a certain period. The wet weight of the callus was measured periodically. The relative amount of increase was determined based on the wet weight of the transplanted resistant mutant. In addition, the experiment was performed three times with different bispyribac-sodium concentrations, and the standard error was calculated. […]
# [2] = system: Vg line resistant mutant rice culture cells; test: Growth of rice culture cells (relative wet weight of callus) in the presence of herbicide, Vg line
# Protocol: as §1, §2
# [3] = system: Ga line resistant mutant rice culture cells; test: Growth of rice culture cells (relative wet weight of callus) in the presence of herbicide, Ga line
# Protocol: as §1, §2
# [4] = system: Sr line resistant mutant rice culture cells; test: Growth of rice culture cells (relative wet weight of callus) in the presence of herbicide, Sr line
# Protocol: as §1, §2
# [5] = system: wild type (Kinmaze) rice culture cells; test: Growth of rice culture cells (relative wet weight of callus) in the presence of herbicide, wild type
# Protocol: Approximately 1.5 g (wet weight) of the resistant mutant was transplanted into a 200 ml Erlenmeyer flask supplemented with 50 ml of a MS-2,4-D liquid medium and bispyribac-sodium at a certain concentration, followed by culturing at approximately 27° C. for a certain period. The wet weight of the callus was measured periodically. The relative amount of increase was determined based on the wet weight of the transplanted resistant mutant. In addition, the experiment was performed three times with different bispyribac-sodium concentrations, and the standard error was calculated. FIGS. 3 to 6 show the relation between changes in bispyribac-sodium concentration and the relative weight on day 8 or 12 in the resistant mutant. As a control, a similar experiment was conducted using the wild type (Kinmaze).
# Also, in the case of using chlorsulfuron instead of bispyribac-sodium, the growth rates of the wild type and the resistant mutants were measured as described above. […] Further, FIGS. 9 to 12 show the relation between changes in chlorsulfuron concentration and relative weight on day 8 or 10 in the resistant mutants, that is, Rb line, Sr line, Ga line and Vg line.
# [6] = group supplemented with 10 μM, day 8 or 12
# [7] = group supplemented with 1 nM herbicide, day 8 (bispyribac-sodium) or day 9 (chlorsulfuron)
Structure (SMILES),"growth of Rb line (relative weight) [1, 6]","effect on the growth of Vg line ([2]; compared with wild type, day 8 or 12)","growth of Ga line (relative weight) [3, 6]","growth of Sr line (relative weight) [4, 6]","growth of the wild type (relative weight) [5, 7]","growth of the wild type (relative weight) ([5]; group supplemented with 10 nM or more, day 8)",growth of Rb line on addition of herbicide (relative weight) ([1]; day 8 or 10),growth of Vg line on addition of herbicide (relative weight) ([2]; day 8 or 10),growth of Ga line on addition of herbicide (relative weight) ([3]; day 8 or 10),growth of Sr line on addition of herbicide (relative weight) ([4]; day 8 or 10)
COc1cc(OC)nc(Oc2cccc(Oc3nc(OC)cc(OC)n3)c2C(=O)O)n1 [bispyribac-sodium],almost none of the growth,smaller than that in the wild type,almost none of the growth,almost none of the growth,not inhibited,inhibited,,,,
COc1nc(C)nc(NC(=O)NS(=O)(=O)c2ccccc2Cl)n1 [chlorsulfuron],,,,,inhibited,,not inhibited so much,not inhibited so much,not inhibited so much,not inhibited so much
